# Measurements: US4720458A, “Heat sensitive bacterial alkaline phosphatase” (priority 1983, dated 1988)
# Experiments:
# [1] = system: HK-47 alkaline phosphatase (APase) from Antarctic psychrophilic marine bacterium strain HK-47 (ATCC 39469)
# Protocol: APase activity was routinely assayed at 25° C. for 30 min in 100 μl reaction mixture containing 2 mM p-nitrophenyl phosphate, 5 mM CaCl2, 0.1M CAPS-NaOH buffer pH 9.5. The reaction was stopped by adding 300 μl of 13% (W/V) EDTA-1N NaOH to the reaction mixture. Control mixtures were similarly prepared, except that 13% EDTA-1N NaOH was added before the enzyme activity was assayed. APase activity was measured as the difference in absorbance at 410 nm between samples and control. One unit of APase activity is expressed as 1 micromole of p-nitrophenol (pNp) liberated per minute at 25° C. under the assay conditions. Protein concentration was determined by the Bio-Rad protein assay kit. Bovine serum albumin (BSA) was used as the standard. Homogeneity of the APase was examined by polyacrylamide gel electrophoresis and Bio-Rad (Bio-Rad laboratories, Richmond, CA.) silver stain.
# [2] = target: E. coli alkaline phosphatase (APase) (Escherichia coli, UniProt P00634); assay: E. coli APase inactivation by EDTA (comparison enzyme); format: biochemical; conditions: read-out: EDTA concentration giving 50% inactivation of E. coli APase
# Chain of E. coli alkaline phosphatase (APase) (P00634 22-471): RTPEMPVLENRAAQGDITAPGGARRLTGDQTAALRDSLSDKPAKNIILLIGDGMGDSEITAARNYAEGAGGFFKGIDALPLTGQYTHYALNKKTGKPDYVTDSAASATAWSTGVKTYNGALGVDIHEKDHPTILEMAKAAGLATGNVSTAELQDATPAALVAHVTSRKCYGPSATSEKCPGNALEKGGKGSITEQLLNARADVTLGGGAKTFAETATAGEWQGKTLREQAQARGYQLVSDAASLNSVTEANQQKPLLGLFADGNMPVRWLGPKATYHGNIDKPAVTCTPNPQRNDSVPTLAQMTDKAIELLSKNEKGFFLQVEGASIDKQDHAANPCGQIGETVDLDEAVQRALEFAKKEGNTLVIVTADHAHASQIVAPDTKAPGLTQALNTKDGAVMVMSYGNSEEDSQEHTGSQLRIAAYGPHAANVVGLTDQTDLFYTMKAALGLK
compound,measurement,setting,value
O=C(O)CN(CCN(CC(=O)O)CC(=O)O)CC(=O)O [EDTA],inhibition of HK-47 APase activity,[1]; at 1 mM EDTA,~100%
same,sensitivity to EDTA of HK-47 APase relative to E. coli APase,"[1]; ratio of the 50% inhibition concentrations, E. coli vs HK-47",100 fold
same,IC50,"[1]; read-out: EDTA concentration inhibiting HK-47 APase activity 50%, HK-47 APase, 'as little as'",0.1 mM
same,IC50,[2],10 mM
